The results in this text go back to US20210353749A1, “GUANABENZ AS AN ADJUVANT FOR IMMUNOTHERAPY” (UNIVERSITÉ CATHOLIQUE DE LOUVAIN, priority 2018, published 2021).

Each structure is given as a SMILES string.

Common to all, as to format: in vivo, mouse
Assay [1] deals with TiRP tumor. As to the kind of experiment: Immunodeficient Rag1-/- TiRP+/+ mice, TiRP tumor. The conditions noted are these: Rag1-/- TiRP+/+ mice lacking T cells, 5 mg/kg i.p. daily from about 500 mm^3 (day 0) to day 15, vs control; FIG. 4. The procedure: FIG. 4 is a graph showing the tumor size in the immunodeficient Rag1^-/- TiRP^+/+ mice that were injected with 4-OH-Tamoxifen to induce a TiRP tumor. When the tumor reached 500 mm^3 (day 0), the tumor bearing mice were randomized and received daily injections of guanabenz (5 mg/kg, i.p.) or vehicle (PBS, i.p.) until the day of sacrifice (day 15). A fresh solution of […]-Tamoxifen was prepared by dissolving […]-Tamoxifen ([…]) in 100% ethanol and mineral oil (ratio 1:9) followed by 30-min sonication, and injected subcutaneously (2 mg/200 μL per mouse) in the neck area of gender-matched 7 weeks old TiRP mice. Tumor appearance was monitored daily and tumors were measured three times/week. Tumor volume (in mm^3) was calculated by the following formula: Volume=width^2×length/2. Tumor-bearing TiRP mice were randomized based on the tumor size when average volume was 400 mm^3, 500 mm^3 or 1000 mm^3 as indicated. T cells were incubated with guanabenz (10, 20, or 40 μM) for 16 h to 24 h as indicated. Mice received a daily intra-peritoneal injection of guanabenz (5 mg/kg) or vehicle (PBS) from the day of randomization (and the day of ACT when applicable) until the day of sacrifice. As a control, tumors were induced in immunodeficient TiRP mice lacking T cells due to the deletion of the Rag1 gene (Rag 1^-/- TiRP^+/+ mice). […]

Assay [2] relates to TiRP tumor. Kind of assay: TiRP melanoma model with adoptive cell transfer of activated P1A-specific CD8+ T cells. From the text: TiRP mice: TiRP mice have been created by crossing Ink4a/Arf^flox/flox mice with mice carrying a transgenic construct controlled by the tyrosinase promoter and driving the expression of H-Ras^12V and Trap1a which encodes a MAGE-type tumor antigen P1A; the promoter is separated from the coding region by a stop cassette made of a floxed self-deleting CreER (Huijbers et al., 2006, Cancer Res 66, 3278-3286). Those mice were backcrossed to a B10.D2 background and bred to homozygosity. TCRP1A mice heterozygous for the H-2Ld/P1A35-43-specific TCR transgene were kept on the B10.D2; Rag1^−/− background (Shanker et al., 2004, J Immunol 172, 5069-5077). All mice used in this study were produced under specific pathogen free (SPF) conditions at the animal facility of the Ludwig Institute for Cancer Research. All the rules concerning animal welfare have been respected according to the 2010/63/EU Directive. All procedures were performed with the approval of the local Animal Ethical Committee, with reference 2015/UCL/MD/15.
A fresh solution of 40H-Tamoxifen was prepared by dissolving 40H-Tamoxifen (Imaginechem) in 100% ethanol and mineral oil (ratio 1:9) followed by 30-min sonication, and injected subcutaneously (2 mg/200 μL per mouse) in the neck area of gender-matched 7 weeks old TiRP mice. Tumor appearance was monitored daily and tumors were measured three times/week. Tumor volume (in mm^3) was calculated by the following formula: Volume=width^2×length/2. Tumor-bearing TiRP mice were randomized based on the tumor size when average volume was 400 mm^3, 500 mm^3 or 1000 mm^3 as indicated.
T cells were incubated with guanabenz (10, 20, or 40 μM) for 16 h to 24 h as indicated. Mice received a daily intra-peritoneal injection of guanabenz (5 mg/kg) or vehicle (PBS) from the day of randomization (and the day of ACT when applicable) until the day of sacrifice.
For the adoptive cell transfer (ACT), P1A-specific (TCRP1A) CD8^+ T cells were isolated from spleens and lymph nodes of TCRP1A mice as described hereinabove, and stimulated in vitro by co-culture with irradiated (10.000 rads) L1210-P1A-B7.1 cells (Gajewski et al., 1995, J Immunol 154, 5637-5648) at 1:2 ratio (0.5×10^5 CD8^+ T cells and 10^5 L1210-P1A-B7.1 cells per well in 48-well plates) in IMDM (GIBCO) containing 10% fetal bovine serum supplemented with L-arginine (0.55 mM, Merck), L-asparagine (0.24 mM, Merck), glutamine (1.5 mM, Merck), betamercaptoethanol (50 μM, Sigma), 50 UmL^−1 penicillin and […] (Life Technologies). Four days later, TCRP1A CD8^+ T cells were purified on a Lymphoprep gradient (StemCell) and 10^7 living cells were injected intravenously in 200 μL PBS in TiRP-tumor bearing mice on the day of randomization.
Mice received a daily intra-peritoneal injection of alprenolol (5 mg/kg) or vehicle (PBS) from the day of ACT until the day of sacrifice.
T cells were incubated with sunitinib (0.1, 0.3, 0.8, 2.5 or 4 μM) for 16 h as indicated. Mice received a daily dose of sunitinib (20 mg/kg) or vehicle (PBS) by oral gavage from the day of ACT until the day of sacrifice.

Assay [3] has as its system TiRP tumor. Kind of assay: TiRP melanoma model with adoptive cell transfer of naïve P1A-specific CD8+ T cells. The conditions noted are these: guanabenz 5 mg/kg i.p. daily with ACT of 2 million naïve T cells, 4 days after the ACT, vs control; FIG. 6. The procedure:
FIG. 6 is a histogram showing the tumor infiltration of P1A-specific CD8^+ T cells evaluated 4 days after ACT of naïve TCRP1A CD8^+ T cells by FACS in mice that received guanabenz (5 mg/kg, i.p.) or vehicle (PBS, i.p.). In the preceding experiments, before being transferred to TiRP-tumor bearing mice, the P1A-specific CD8^+ T were pre-activated in vitro by co-culture with irradiated L1210-P1A-B7.1 cells as described hereinabove. […] TiRP-tumor bearing mice were administered an adoptive cell transfer (ACT) of 2 million of naïve P1A-specific CD8^+ T cells and daily injections of guanabenz from the day of the ACT. […] Thus, when the mice were administered guanabenz, the transferred naïve CD8^+ T cells were properly primed and populated the tumor.

In the case of `NC(N)=N/N=C/c1c(Cl)cccc1Cl` [guanabenz, 2-[(E)-(2,6-dichlorophenyl)methylideneamino]guanidine], the TiRP tumor growth entry in the assay with TiRP tumor [1] is listed as “did not induce a decrease”. Besides, the tumor growth result in the assay with TiRP tumor [2] (guanabenz 5 mg/kg i.p. daily with ACT of 10 million activated T cells, day 0 to day 18, vs ACT alone, FIG. 5A) was “significantly decreased”. For the same compound, the “tumor infiltration of CD8+ T cells (P1A tetramer+ CD8+ T cells among total living cells and among total CD8+ T cells)” value in the assay on TiRP tumor [2] (guanabenz 5 mg/kg i.p. daily with ACT, 10 days after ACT, FIG. 5C-D) was “increased”. In the assay with TiRP tumor [2] (guanabenz 5 mg/kg i.p. daily with ACT, 10 days after ACT, FIG. 5E), the “apoptosis of the adoptively transferred CD8+ T cells” value is on record as “reduced”. For the same compound, the “percentage of CD69+ P1A-specific CD8+ T cells (T cell activation marker)” value in the assay with TiRP tumor [2] (guanabenz 5 mg/kg i.p. daily with ACT, 10 days after ACT, FIG. 5F) is recorded as “increased percentage”. Also, the “tumor weight on the day of sacrifice” value in the assay on TiRP tumor [2] (guanabenz 5 mg/kg i.p. daily with ACT, day 18, vs ACT alone, FIG. 5B) is listed as “significantly decreased”. Also, the “tumor infiltration of P1A-specific CD8+ T cells” value with TiRP tumor [3] was “significantly increased”.
